Reference: patent US5001118A, “Method for preventing senescence and increasing bone mass” (priority 1986, dated 1991)

Experiments:
[1] = test system: osteoporosis; assay: Activity on bones found by the inventors (general statement)
[2] = test system: rats; assay: Lifelong administration to rats (general statement on bone); format: in vivo, rat
Source text: One aspect of the present invention has been perfected based on the above findings. […] These findings are literally epochal in the light of the fact that the conventional pharmaceutical compositions for adjusting bone metabolism is found to be only capable of restoring bones having abnormality due to morbidity near to normality.

[3] = lifelong administration to rats

SMILES: C=C1CC[C@H](O)C/C1=C/C=C1\CCC[C@]2(C)[C@@H]([C@H](C)CCC(O)C(C)(C)O)CC[C@@H]12 (stereo partly shown) [24,25-(OH)2 -D3, 24,25-dihydroxy cholecalciferol]
- activity on osteoporosis [1]: activity of preventing osteoporosis
- bone quality [2, 3]: without affecting the bone quality
- bone volume [2, 3]: increasing bone volume
- bone strength vs non-administered normal mammals ([2]; normal mammal, extension of the lifelong rat experiment): clearly surpassing the average bone strength of non-administered normal mammals
